According to patent publication US10478390B2, “Use of glycosides to increase hair mass” (L'OREAL, priority 2015, dated 2019):

Test system: hair follicles from biopsies of human scalps
Assay: Hair follicles cultured in vitro for 8 days: increase in the diameter of the hair shaft (fiber)
Type: cell-based
Conditions: for average % of increase of the diameter of the shafts: same test as for proxylane, method states each glycoside at 10 μM, d0 to d8; for average % of increase between D0 and D8: PX 1 mM, hair shaft diameter
Protocol: The hair follicles come from biopsies of human scalps, from cosmetic surgery operations conducted on white Caucasian women aged 45 to 75 years.
The hair follicles are dissected according to the method described in patent application FR 2 736 721 and U.S. Pat. No. 5,712,169, and only the terminal anagen and pigmented hair follicles are studied.
Freshly dissected hair follicles are introduced into multi-well plates containing 500 μL of William's medium, Invitrogen reference 22551022, enriched with insulin to […], 10 ng/mL of hydrocortisone, 10 μg/mL of L-Glutamine and 0.5% antibiotics (Gibco, reference 15240-096).
The C-glycosides are then incubated versus a vehicle alone (control condition), the hair follicles are placed in the incubator (37° C., 5% CO2) and kept alive in these different conditions for 8 days. The culture mediums (of the treated and control conditions) are replaced every two days.
Each glycoside is studied at 10 μM, (dilution of the solid compound in water), versus the vehicle alone (water) for the control condition.
Each condition is carried out on 12 different hair follicles, which makes it possible to overcome inter-follicle variabilities, and repeated over 3 different subjects (biopsies of scalp from 3 different volunteers) in order to evaluate the robustness of the results, and to overcome inter-donor variability.
During the 8 days of treatment, all of the hair follicles are observed and photographed every two days in order to evaluate the maintaining of their survival. They are also measured using a binocular magnifier (Leica) provided with a micrometric eyepiece in order to ensure the proper growth thereof.
The diameter of the hair shaft is measured using photographs taken of all of the hair follicles at d0 and at d8. Using the Leica Application Suite software (Leica), the hair shaft is cropped, its surface is then calculated and its average diameter is determined. The increase in the diameter of the fiber generated in vitro is determined by: (average diameter at d8 Dd8−average diameter at d0 Dd0)*100/Dd0.

Compound	average % of increase of the diameter of the shafts [%]	thickness of the newly-formed hair shaft (for each subject, in the presence of proxylane)	average % of increase between D0 and D8 (individual 1, control +9.7)	average % of increase between D0 and D8 (individual 2, control +2.7)	average % of increase between D0 and D8 (individual 3, control +4.3)
COc1cc(CCC(O)CC2OC[C@@H](O)[C@H](O)[C@H]2O)ccc1O (stereo partly drawn) [Glycoside 2, (3R,4S,5R)-2-[2-hydroxy-4-(4-hydroxy-3methxyphenyl)butyl] tetrahydro-2Hpyran-3,4,5-triol]	12.7	–	–	–	–
O[C@H]1[C@H](O)COC(OCCc2ccccc2)[C@@H]1O (stereo partly drawn) [Glycoside 3, 2-phenylethyl D-xylopyranoside]	16	–	–	–	–
OC1OC[C@@H](O)[C@H](O)[C@H]1O (stereo partly drawn) [Glycoside 4, D-xylose]	11	–	–	–	–
CC(O)C[C@@H]1OC[C@@H](O)[C@H](O)[C@H]1O (stereo partly drawn) [PX, 1,5-anhydro-6,8-dideoxy-L-gluco-octitol (Proxylane)]	–	increase in the thickness of the newly-formed hair shaft is observed	+17.5%	+11.2%	+14.5%
